Assay results as given in PubChem BioAssay (NCI).
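All cell lines were grown in 96-well plates and treated with compound for 48 hours. TGI is the concentration that stops growth completely.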

Columns and labels:
Assay in all cases: NCI anticancer screen, dose series, 48 h
[1] = test system: 786-0 renal
[2] = test system: BT-549 breast
[3] = test system: CAKI-1 renal
[4] = test system: DU-145 prostate
[5] = test system: IGROV1 ovarian
[6] = test system: K-562 leukemia
[7] = test system: MDA-MB-435
[8] = test system: MOLT-4 leukemia
[9] = test system: OVCAR-5 ovarian
[10] = test system: PC-3 prostate
[11] = test system: SF-539 CNS
[12] = test system: SK-MEL-28 melanoma
[13] = test system: SNB-75 CNS
[14] = test system: T-47D breast
[15] = test system: U251 CNS
[16] = test system: UO-31 renal
[17] = test system: HL-60(TB) leukemia
[18] = test system: HCC-2998 colon

Row | SMILES | TGI [1] | TGI [2] | TGI [3] | TGI [4] | TGI [5] | TGI [6] | TGI [7] | TGI [8] | TGI [9] | TGI [10] | TGI [11] | TGI [12] | TGI [13] | TGI [14] | TGI [15] | TGI [16] | TGI [17] | TGI [18]
1 | CC(C)(C)OC(=O)CC(NC(=O)OC(C)(C)C)C(=O)Oc1ccc([N+](=O)[O-])cc1 (configuration not stated) | > 100 µM | > 100 µM | > 100 µM | > 100 µM | > 100 µM | > 100 µM | > 100 µM | > 100 µM | > 100 µM | > 100 µM | > 100 µM | > 100 µM | > 100 µM | > 100 µM | > 100 µM | > 100 µM |  | 
2 | Cn1c2c(c3c(=O)[nH]ncc31)CCCc1ccccc1-2 | > 100 µM | > 100 µM | 69.9 µM | > 100 µM | 61.6 µM | > 100 µM | 50.4 µM | 21.6 µM | > 100 µM | > 100 µM | > 100 µM |  | > 100 µM | > 100 µM | 92.1 µM | 53.1 µM | 16.3 µM | 
3 | CN1C(=O)C(O)C[C@@H]1c1ccc(F)cc1 (some centres not stated) | > 100 µM | > 100 µM | > 100 µM | > 100 µM | > 100 µM |  | > 100 µM | > 100 µM | > 100 µM | > 100 µM | > 100 µM | > 100 µM |  | > 100 µM | > 100 µM | > 100 µM | > 100 µM | > 100 µM
4 | CSc1nc(Cl)c2c(n1)Sc1nc3ccccc3n1N=C2 | 70.2 µM | 43.3 µM | 72.5 µM | > 100 µM | 36.7 µM | 50 µM | > 100 µM | 63.2 µM | 97.2 µM | 48 µM |  | > 100 µM | 71.5 µM | 57.2 µM | > 100 µM | 35.9 µM |  | 60.9 µM
5 | Cc1ccc(NCc2nnc3c(-c4ccccc4)nc4ccccc4n23)cc1 | > 100 µM | > 100 µM | > 100 µM | > 100 µM | > 100 µM | > 100 µM | > 100 µM | > 100 µM | > 100 µM | 52.9 µM | > 100 µM | > 100 µM |  | 9.62 µM | > 100 µM |  | 68.3 µM | > 100 µM
6 | O=c1c2cc([N+](=O)[O-])cnc2sn1-c1ccc(Br)cc1 | > 100 µM | > 100 µM |  | > 100 µM | > 100 µM |  | > 100 µM | 90.3 µM | > 100 µM | > 100 µM | > 100 µM | > 100 µM | > 100 µM | 48.1 µM | > 100 µM | > 100 µM | 80.7 µM | > 100 µM
7 | Cc1ccc(C)c(C(=N)c2ccccc2Cc2ccccc2)c1 | 32.2 µM | 83.7 µM | > 100 µM | 48.1 µM | > 100 µM | 58.7 µM | 47.2 µM | 38.2 µM | 98.3 µM | > 100 µM | 33.8 µM | 80.1 µM |  | 80.6 µM | 30.4 µM | > 100 µM | 43.6 µM | 31.7 µM
8 | COC(=O)/C=C/N1CC1 | > 10 µM | > 10 µM | > 10 µM | > 10 µM | 6.15 µM | > 10 µM | > 10 µM | > 10 µM | > 10 µM | > 10 µM | > 10 µM | > 10 µM | > 10 µM | > 10 µM | > 10 µM |  | > 10 µM | > 10 µM
9 | CC(C)[Si](OC1=CCC[C@H]2NC(=O)[C@@H](Cc3ccc([N+](=O)[O-])cc3)[C@@]12C)(C(C)C)C(C)C | 17.8 µM | 13.2 µM | 26.2 µM | 21.3 µM | 28.8 µM | 13.7 µM |  | > 100 µM | 21.2 µM | 12 µM | 5.41 µM |  | 23.8 µM | 18.4 µM |  | 26.4 µM | 24.4 µM | 4.22 µM
10 | Cc1cc2nc3c(C#N)c4c(c(Nc5ccc(Cl)cc5)n3c2cc1C)CCC4 | 29.3 µM | 44.8 µM | 41.4 µM | 75.1 µM |  |  | > 100 µM | > 100 µM | 36.3 µM |  | 48.7 µM | 47.2 µM | > 100 µM | 86.3 µM | 32.9 µM |  |  | 
11 | COc1cc(C2SC(N)=Nc3c2c(C)nn3C(=O)c2ccc(Cl)cc2)ccc1O (configuration not stated) | > 10 µM | > 10 µM | > 10 µM | > 10 µM | > 10 µM | > 10 µM | > 10 µM | > 10 µM | > 10 µM | > 10 µM | > 10 µM | > 10 µM | > 10 µM | > 10 µM | > 10 µM |  | > 10 µM | > 10 µM
12 | O=C(O)CCCN=C(C(=NCCCC(=O)O)c1ccccc1)c1ccccc1 | > 100 µM | > 100 µM |  | > 100 µM | > 100 µM | > 100 µM | > 100 µM | > 100 µM | > 100 µM | > 100 µM |  | > 100 µM | > 100 µM | > 100 µM | > 100 µM | > 100 µM |  | > 100 µM
13 | CC(C)(C)c1cc2c(O)c(c1)COCc1cc(C(C)(C)C)cc(c1O)COCc1cc(C(C)(C)C)cc(c1O)COC2 | > 100 µM | > 100 µM |  | > 100 µM | > 100 µM | > 100 µM | > 100 µM | > 100 µM | > 100 µM | > 100 µM |  | > 100 µM | > 100 µM | > 100 µM | > 100 µM | > 100 µM | > 100 µM | > 100 µM
14 | COC(=O)c1ccccc1Nc1ccccc1C(=O)OC | > 100 µM | > 100 µM | > 100 µM | > 100 µM | > 100 µM | > 100 µM | > 100 µM | > 100 µM | > 100 µM | > 100 µM | > 100 µM | > 100 µM | > 100 µM | > 100 µM | > 100 µM |  | > 100 µM | 
15 | O=C(NC(Cc1ccccc1)P(=O)(O)c1ccccc1)OCc1ccccc1 (configuration not stated) | > 100 µM | > 100 µM | > 100 µM | > 100 µM | > 100 µM | > 100 µM | > 100 µM | > 100 µM | > 100 µM | > 100 µM |  | > 100 µM | > 100 µM | > 100 µM | > 100 µM | > 100 µM | > 100 µM | 
